Drawing on patent publication US10168342B2, “Lipid probes and uses thereof” (THE SCRIPPS RESEARCH INSTITUTE, priority 2015, dated 2019), this text covers Times observed for one compound.

Each structure is given as a SMILES string.

What all share (assay): isoTOP-ABPP mapping of AEA-DA-modified peptides in Neuro2a cells
Holding throughout (assay type): cell-based

The target of assay [1] is T1, AEA-DA-modified peptides in Neuro2a cells (Mus musculus, UniProt O08579).
T1 construct: endogenous in cells; host or cells: Neuro2a
T1 sequence (O08579 whole entry): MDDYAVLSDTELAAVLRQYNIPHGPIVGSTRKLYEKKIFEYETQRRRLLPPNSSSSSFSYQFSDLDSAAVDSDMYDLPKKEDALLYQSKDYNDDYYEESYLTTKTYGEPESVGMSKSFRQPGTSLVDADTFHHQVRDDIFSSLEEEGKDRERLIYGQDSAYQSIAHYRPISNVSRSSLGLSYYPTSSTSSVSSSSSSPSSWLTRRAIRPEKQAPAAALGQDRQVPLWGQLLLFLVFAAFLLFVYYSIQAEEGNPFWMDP
As to conditions: AEA-DA-modified peptide EMD O08579 176-205, SEQ ID NO 37; probe 100 μM, 12 replicates.

The target in assay [2] is T2, AEA-DA-modified peptides in Neuro2a cells (Mus musculus, UniProt O09061).
T2 construct: endogenous in cells; host or cells: Neuro2a
T2 sequence (O09061 28-240): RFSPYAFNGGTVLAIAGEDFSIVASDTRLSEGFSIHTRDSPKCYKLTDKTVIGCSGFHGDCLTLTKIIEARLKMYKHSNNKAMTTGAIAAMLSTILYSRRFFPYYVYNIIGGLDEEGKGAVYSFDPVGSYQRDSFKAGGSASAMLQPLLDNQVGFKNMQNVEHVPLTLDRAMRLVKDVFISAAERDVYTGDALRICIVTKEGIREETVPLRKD
To be noted: AEA-DA-modified peptide PSMB1 O09061 127-146, SEQ ID NO 90; probe 100 μM, 12 replicates.

The target in assay [3] is T3, AEA-DA-modified peptides in Neuro2a cells (Mus musculus, UniProt O35737).
T3 construct: endogenous in cells; host or cells: Neuro2a
T3 sequence (O35737 whole entry): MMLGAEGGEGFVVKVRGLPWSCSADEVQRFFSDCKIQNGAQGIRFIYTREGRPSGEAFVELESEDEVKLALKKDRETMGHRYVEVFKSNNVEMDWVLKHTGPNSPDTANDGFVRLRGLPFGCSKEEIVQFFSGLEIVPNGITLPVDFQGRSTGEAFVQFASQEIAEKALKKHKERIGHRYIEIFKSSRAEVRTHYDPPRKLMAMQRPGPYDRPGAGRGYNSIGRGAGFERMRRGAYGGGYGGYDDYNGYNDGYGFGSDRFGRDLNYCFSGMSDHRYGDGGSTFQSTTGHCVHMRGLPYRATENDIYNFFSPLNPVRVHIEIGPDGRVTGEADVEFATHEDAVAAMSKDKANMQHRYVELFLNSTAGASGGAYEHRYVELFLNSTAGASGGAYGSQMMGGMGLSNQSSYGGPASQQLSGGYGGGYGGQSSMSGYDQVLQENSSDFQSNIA
As to conditions: AEA-DA-modified peptide HNRNPH 1 O35737 50-69, SEQ ID NO 49; probe 100 μM, 12 replicates.

Assay [4] deals with T4, AEA-DA-modified peptides in Neuro2a cells (Mus musculus, UniProt P09103).
T4 construct: endogenous in cells; host or cells: Neuro2a
T4 sequence (P09103 20-509): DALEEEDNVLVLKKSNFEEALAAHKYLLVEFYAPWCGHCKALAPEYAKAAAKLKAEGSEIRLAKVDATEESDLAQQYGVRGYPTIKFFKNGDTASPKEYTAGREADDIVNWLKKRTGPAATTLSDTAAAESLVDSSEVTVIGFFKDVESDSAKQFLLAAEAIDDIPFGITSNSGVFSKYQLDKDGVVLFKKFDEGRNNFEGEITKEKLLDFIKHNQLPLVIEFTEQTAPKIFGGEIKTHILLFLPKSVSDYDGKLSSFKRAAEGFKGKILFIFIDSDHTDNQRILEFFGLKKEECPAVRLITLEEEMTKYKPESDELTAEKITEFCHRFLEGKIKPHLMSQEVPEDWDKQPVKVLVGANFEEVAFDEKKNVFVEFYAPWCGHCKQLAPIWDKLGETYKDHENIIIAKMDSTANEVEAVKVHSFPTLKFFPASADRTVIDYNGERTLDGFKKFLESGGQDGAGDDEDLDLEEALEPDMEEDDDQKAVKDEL
To be noted: probe 100 μM, 12 replicates.

Assay [5] concerns the target T5, AEA-DA-modified peptides in Neuro2a cells (Mus musculus, UniProt P53811).
T5 construct: endogenous in cells; host or cells: Neuro2a
As to conditions: AEA-DA-modified peptide PITPNB P53811 32-45, SEQ ID NO 86; probe 100 μM, 12 replicates.

Assay [6] deals with T6, AEA-DA-modified peptides in Neuro2a cells (Mus musculus, UniProt P62814).
T6 construct: endogenous in cells; host or cells: Neuro2a
T6 sequence (P62814 whole entry): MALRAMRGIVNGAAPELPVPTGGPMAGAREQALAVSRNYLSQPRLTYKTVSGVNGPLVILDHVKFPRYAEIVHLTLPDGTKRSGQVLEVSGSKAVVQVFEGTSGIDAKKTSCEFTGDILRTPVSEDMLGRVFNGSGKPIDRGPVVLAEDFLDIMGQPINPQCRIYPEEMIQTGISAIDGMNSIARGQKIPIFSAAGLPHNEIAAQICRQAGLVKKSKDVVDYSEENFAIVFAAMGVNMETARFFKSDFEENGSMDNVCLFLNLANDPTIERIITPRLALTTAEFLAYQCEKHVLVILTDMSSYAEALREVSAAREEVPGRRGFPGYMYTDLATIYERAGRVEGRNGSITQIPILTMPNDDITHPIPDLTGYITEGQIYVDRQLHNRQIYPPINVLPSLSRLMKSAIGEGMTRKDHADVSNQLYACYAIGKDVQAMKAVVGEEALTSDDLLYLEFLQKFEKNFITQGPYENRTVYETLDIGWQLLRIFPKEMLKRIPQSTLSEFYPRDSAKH
As to conditions: AEA-DA-modified peptide ATP6V1B2 P62814 68-82, SEQ ID NO 20; probe 100 μM, 12 replicates.

The target in assay [7] is T7, AEA-DA-modified peptides in Neuro2a cells (Mus musculus, UniProt Q791V5).
T7 construct: endogenous in cells; host or cells: Neuro2a
T7 sequence (Q791V5 whole entry): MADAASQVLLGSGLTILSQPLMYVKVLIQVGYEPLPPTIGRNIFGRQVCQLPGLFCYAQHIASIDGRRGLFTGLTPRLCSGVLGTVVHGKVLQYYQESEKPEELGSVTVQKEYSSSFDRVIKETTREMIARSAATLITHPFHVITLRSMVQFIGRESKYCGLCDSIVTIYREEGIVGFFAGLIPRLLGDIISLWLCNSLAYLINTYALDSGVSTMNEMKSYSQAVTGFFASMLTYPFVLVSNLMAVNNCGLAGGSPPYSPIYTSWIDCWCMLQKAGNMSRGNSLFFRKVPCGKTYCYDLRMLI
As to conditions: AEA-DA-modified peptide MTCH2 Q791V5 91-112, SEQ ID NO 62; probe 100 μM, 12 replicates.

Assay [8] deals with T8, AEA-DA-modified peptides in Neuro2a cells (Mus musculus, UniProt Q8BGC4).
T8 construct: endogenous in cells; host or cells: Neuro2a
T8 sequence (Q8BGC4 whole entry): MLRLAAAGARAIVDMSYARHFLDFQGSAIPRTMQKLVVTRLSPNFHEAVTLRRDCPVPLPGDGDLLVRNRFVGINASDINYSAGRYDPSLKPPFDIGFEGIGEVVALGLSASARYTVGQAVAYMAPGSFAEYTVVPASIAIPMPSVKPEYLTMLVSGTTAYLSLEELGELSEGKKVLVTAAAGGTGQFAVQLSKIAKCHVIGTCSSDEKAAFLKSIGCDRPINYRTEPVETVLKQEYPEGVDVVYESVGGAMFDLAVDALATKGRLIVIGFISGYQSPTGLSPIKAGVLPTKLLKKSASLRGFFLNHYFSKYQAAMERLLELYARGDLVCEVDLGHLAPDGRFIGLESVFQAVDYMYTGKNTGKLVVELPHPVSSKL
To be noted: AEA-DA-modified peptide ZADH2 Q8BGC4 86-115, SEQ ID NO 122; probe 100 μM, 12 replicates.

Assay [9] addresses T9, AEA-DA-modified peptides in Neuro2a cells (Mus musculus, UniProt Q8BKE6).
T9 construct: endogenous in cells; host or cells: Neuro2a
To be noted: AEA-DA-modified peptide CYP20A1 Q8BKE6 397-414, SEQ ID NO 29; probe 100 μM, 12 replicates.

The target in assay [10] is T10, AEA-DA-modified peptides in Neuro2a cells (Mus musculus, UniProt Q9CPQ8).
T10 construct: endogenous in cells; host or cells: Neuro2a
T10 sequence (Q9CPQ8 whole entry): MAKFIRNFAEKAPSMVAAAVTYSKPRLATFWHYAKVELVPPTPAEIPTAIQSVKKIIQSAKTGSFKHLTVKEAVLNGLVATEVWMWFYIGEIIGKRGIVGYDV
As to conditions: AEA-DA-modified peptide ATP5L Q9CPQ8 36-55, SEQ ID NO 19; probe 100 μM, 12 replicates.

Assay [11] deals with T11, AEA-DA-modified peptides in Neuro2a cells (Mus musculus, UniProt Q9CPU0).
T11 construct: endogenous in cells; host or cells: Neuro2a
T11 sequence (Q9CPU0 whole entry): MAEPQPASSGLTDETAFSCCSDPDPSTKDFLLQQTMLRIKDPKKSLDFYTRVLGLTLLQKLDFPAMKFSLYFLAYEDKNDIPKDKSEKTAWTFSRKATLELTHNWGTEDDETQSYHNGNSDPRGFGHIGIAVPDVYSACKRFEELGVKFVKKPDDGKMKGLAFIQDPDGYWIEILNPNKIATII
To be noted: AEA-DA-modified peptide GLO1 Q9CPU0 160-180, SEQ ID NO 42; probe 100 μM, 12 replicates.

For assay [12], the target named is T12, AEA-DA-modified peptides in Neuro2a cells (Mus musculus, UniProt Q9JKW0).
T12 construct: endogenous in cells; host or cells: Neuro2a
T12 sequence (Q9JKW0 whole entry): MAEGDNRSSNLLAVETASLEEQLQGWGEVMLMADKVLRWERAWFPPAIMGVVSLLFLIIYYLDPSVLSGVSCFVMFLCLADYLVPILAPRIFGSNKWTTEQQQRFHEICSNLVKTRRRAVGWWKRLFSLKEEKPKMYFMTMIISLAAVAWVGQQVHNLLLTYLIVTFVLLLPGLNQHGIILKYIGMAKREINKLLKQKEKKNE
To be noted: AEA-DA-modified peptide ARL6IP1 Q9JKW0 8-36, SEQ ID NO 15; probe 100 μM, 12 replicates.

T9 sequence (Q8BKE6 whole entry): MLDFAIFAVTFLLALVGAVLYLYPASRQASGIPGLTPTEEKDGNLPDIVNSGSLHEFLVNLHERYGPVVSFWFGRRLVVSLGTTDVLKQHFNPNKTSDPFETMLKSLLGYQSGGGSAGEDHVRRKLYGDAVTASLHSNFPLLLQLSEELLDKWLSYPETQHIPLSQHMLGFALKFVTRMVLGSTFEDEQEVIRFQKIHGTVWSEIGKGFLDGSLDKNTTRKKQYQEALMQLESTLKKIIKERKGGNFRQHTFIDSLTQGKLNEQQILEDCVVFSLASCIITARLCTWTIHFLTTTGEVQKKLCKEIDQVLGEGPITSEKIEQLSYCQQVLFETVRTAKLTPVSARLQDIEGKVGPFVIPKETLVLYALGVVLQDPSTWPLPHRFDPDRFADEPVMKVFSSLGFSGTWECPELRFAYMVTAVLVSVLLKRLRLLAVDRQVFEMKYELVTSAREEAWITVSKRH
T5 sequence (P53811 whole entry): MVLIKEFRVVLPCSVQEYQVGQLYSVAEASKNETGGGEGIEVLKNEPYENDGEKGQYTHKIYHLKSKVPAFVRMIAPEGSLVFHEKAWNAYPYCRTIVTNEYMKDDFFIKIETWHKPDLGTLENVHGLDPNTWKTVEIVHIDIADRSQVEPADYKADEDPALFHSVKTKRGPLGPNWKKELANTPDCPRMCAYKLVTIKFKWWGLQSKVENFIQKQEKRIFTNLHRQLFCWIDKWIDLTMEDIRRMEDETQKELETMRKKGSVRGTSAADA

Consider `C#CCCCC1(CC/C=C\C/C=C\C/C=C\CCCC(=O)NCCO)N=N1` [AEA-DA, (5Z,8Z,11Z)-N-(2-hydroxyethyl)-14-(3-(pent-4-yn-1-yl)-3H-diazirin-3-yl)tetradeca-5,8,11-trienamide], for which the Times observed is listed as 2 in assay [1]; 8 in [2]; 9 in assay [3]; 3 in [4] (AEA-DA-modified peptide P4HB P09103 135-165, SEQ ID NO 77); 10 in [4] (AEA-DA-modified peptide P4HB P09103 233-250, SEQ ID NO 78); 4 in assay [5]. Further, the Times observed in [6] came out at 3; in [7] it was 2; in [8] it was 8; in [9], 8; in [10] it was 3; in assay [11], 2. The Times observed in assay [12] is given as 2.
